# Assay results from ChEMBL document CHEMBL6078699, “Constrained β-Hairpins Targeting the EphA4 Ligand Binding Domain” (J Med Chem, 2024).
# Calls of active or inactive are those of the source. The rule behind the calls is not given here. Numbered stars: 1 amine (or outer) side, 2 acyl side, 3 side chain; on linkers, the order of the positions; unused ones are H or OH. Square brackets hold non-standard residues; d marks the D form. Peptide text beside a SMILES is read from it. Azetidine3carboxylic = O=C(C1CN([*:1])C1)[*:2]; βPro(3R) = O=C([C@@H]1CCN([*:1])C1)[*:2]; βPro(3S) = O=C([C@H]1CCN([*:1])C1)[*:2]; X2 = O=C([C@H]1CCCN([*:1])C1)[*:2]; βAla = NCCC(=O)O
# Target: Ephrin type-A receptor 4 (Homo sapiens) (UniProt P54764)
# Sequence (P54764 whole entry, the tested form may be a part): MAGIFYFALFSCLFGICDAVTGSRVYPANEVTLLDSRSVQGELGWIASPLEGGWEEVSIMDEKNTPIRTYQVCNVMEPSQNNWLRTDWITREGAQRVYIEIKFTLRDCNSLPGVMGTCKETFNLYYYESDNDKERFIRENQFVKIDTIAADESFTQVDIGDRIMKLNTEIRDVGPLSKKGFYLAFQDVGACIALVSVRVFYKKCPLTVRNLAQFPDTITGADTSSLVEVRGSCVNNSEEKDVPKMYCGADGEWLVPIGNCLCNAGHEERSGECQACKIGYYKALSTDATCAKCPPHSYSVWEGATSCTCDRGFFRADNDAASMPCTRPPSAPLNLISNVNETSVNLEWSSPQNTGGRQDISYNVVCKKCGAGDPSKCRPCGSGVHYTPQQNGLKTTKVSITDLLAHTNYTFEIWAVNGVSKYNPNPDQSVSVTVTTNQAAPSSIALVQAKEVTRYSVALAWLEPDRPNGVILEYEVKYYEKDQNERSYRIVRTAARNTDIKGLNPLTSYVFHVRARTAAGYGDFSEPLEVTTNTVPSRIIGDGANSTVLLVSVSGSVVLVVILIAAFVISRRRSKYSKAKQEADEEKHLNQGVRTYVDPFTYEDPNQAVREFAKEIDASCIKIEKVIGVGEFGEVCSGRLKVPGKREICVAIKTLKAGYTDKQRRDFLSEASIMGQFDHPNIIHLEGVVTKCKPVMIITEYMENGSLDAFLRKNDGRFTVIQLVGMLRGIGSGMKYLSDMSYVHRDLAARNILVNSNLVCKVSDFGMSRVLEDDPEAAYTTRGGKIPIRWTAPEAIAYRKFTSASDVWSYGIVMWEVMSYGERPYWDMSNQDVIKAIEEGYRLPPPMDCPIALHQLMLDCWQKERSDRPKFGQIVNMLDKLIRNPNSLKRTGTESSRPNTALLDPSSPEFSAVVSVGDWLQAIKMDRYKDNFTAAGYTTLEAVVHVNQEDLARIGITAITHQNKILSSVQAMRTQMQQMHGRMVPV
# Experiment: Binding affinity to EphA4-LBD (unknown origin) at 40 uM by isothermal titration calorimetry
# Conditions: not given
row,SMILES,Activity
1,CC(C)[C@H](NC(=O)[C@H](C)NC(=O)[C@H](Cc1ccc(O)cc1)NC(=O)[C@@H]1CCCN1C(=O)CCN)C(=O)N[C@@H](Cc1ccc(O)cc1)C(=O)N[C@@H](CCCNC(=N)N)C(=O)N1CC[C@@H]1C(=O)N[C@@H](CO)C(=O)N[C@@H](Cc1c[nH]c2ccccc12)C(=O)N[C@@H](CO)C(=O)N[C@@H](C)C(N)=O,inactive
2,CC(C)[C@H](NC(=O)[C@H](C)NC(=O)[C@H](Cc1ccc(O)cc1)NC(=O)[C@@H]1CCCN1C(=O)CCN)C(=O)N[C@@H](Cc1ccc(O)cc1)C(=O)N[C@@H](CCCNC(=N)N)C(=O)N1CC[C@H]1C(=O)N[C@@H](CO)C(=O)N[C@@H](Cc1c[nH]c2ccccc12)C(=O)N[C@@H](CO)C(=O)N[C@@H](C)C(N)=O,inactive
3,CC(C)[C@H](NC(=O)[C@H](C)NC(=O)[C@H](Cc1ccc(O)cc1)NC(=O)[C@@H]1CCCN1C(=O)CCN)C(=O)N[C@@H](Cc1ccc(O)cc1)C(=O)N[C@@H](CCCNC(=N)N)C(=O)N[C@H]1CC[C@@H]1C(=O)N[C@H](CO)C(=O)N[C@@H](Cc1c[nH]c2ccccc12)C(=O)N[C@@H](CO)C(=O)N[C@@H](C)C(N)=O,inactive
4,CC(C)[C@H](NC(=O)[C@H](C)NC(=O)[C@H](Cc1ccc(O)cc1)NC(=O)[C@@H]1CCCN1C(=O)CCN)C(=O)N[C@@H](Cc1ccc(O)cc1)C(=O)N[C@@H](CCCNC(=N)N)C(=O)N1CC(C(=O)N[C@@H](CO)C(=O)N[C@@H](Cc2c[nH]c3ccccc23)C(=O)N[C@@H](CO)C(=O)N[C@@H](C)C(N)=O)C1 (H-[βAla]PYAVYR[Azetidine3carboxylic]SWSA-NH2),inactive
5,CC(C)[C@H](NC(=O)[C@H](C)NC(=O)[C@H](Cc1ccc(O)cc1)NC(=O)[C@@H]1CCCN1C(=O)CCN)C(=O)N[C@@H](Cc1ccc(O)cc1)C(=O)N[C@@H](CCCNC(=N)N)C(=O)N1CCC[C@H](C(=O)N[C@@H](CO)C(=O)N[C@@H](Cc2c[nH]c3ccccc23)C(=O)N[C@@H](CO)C(=O)N[C@@H](C)C(N)=O)C1 (H-[βAla]PYAVYR[X2]SWSA-NH2),inactive
6,CC(C)[C@H](NC(=O)[C@H](C)NC(=O)[C@H](Cc1ccc(O)cc1)NC(=O)[C@@H]1CCCN1C(=O)CCN)C(=O)N[C@@H](Cc1ccc(O)cc1)C(=O)N[C@@H](CCCNC(=N)N)C(=O)N1CC[C@@H](C(=O)N[C@@H](CO)C(=O)N[C@@H](Cc2c[nH]c3ccccc23)C(=O)N[C@@H](CO)C(=O)N[C@@H](C)C(N)=O)C1 (H-[βAla]PYAVYR[βPro(3R)]SWSA-NH2),inactive
7,CC(C)[C@H](NC(=O)[C@H](C)NC(=O)[C@H](Cc1ccc(O)cc1)NC(=O)[C@@H]1CCCN1C(=O)CCN)C(=O)N[C@@H](Cc1ccc(O)cc1)C(=O)N[C@@H](CCCNC(=N)N)C(=O)N1CC[C@H](C(=O)N[C@@H](CO)C(=O)N[C@@H](Cc2c[nH]c3ccccc23)C(=O)N[C@@H](CO)C(=O)N[C@@H](C)C(N)=O)C1 (H-[βAla]PYAVYR[βPro(3S)]SWSA-NH2),inactive

# Target: Ephrin type-A receptor 4 (Mus musculus) (UniProt Q03137)
# Sequence (Q03137 whole entry): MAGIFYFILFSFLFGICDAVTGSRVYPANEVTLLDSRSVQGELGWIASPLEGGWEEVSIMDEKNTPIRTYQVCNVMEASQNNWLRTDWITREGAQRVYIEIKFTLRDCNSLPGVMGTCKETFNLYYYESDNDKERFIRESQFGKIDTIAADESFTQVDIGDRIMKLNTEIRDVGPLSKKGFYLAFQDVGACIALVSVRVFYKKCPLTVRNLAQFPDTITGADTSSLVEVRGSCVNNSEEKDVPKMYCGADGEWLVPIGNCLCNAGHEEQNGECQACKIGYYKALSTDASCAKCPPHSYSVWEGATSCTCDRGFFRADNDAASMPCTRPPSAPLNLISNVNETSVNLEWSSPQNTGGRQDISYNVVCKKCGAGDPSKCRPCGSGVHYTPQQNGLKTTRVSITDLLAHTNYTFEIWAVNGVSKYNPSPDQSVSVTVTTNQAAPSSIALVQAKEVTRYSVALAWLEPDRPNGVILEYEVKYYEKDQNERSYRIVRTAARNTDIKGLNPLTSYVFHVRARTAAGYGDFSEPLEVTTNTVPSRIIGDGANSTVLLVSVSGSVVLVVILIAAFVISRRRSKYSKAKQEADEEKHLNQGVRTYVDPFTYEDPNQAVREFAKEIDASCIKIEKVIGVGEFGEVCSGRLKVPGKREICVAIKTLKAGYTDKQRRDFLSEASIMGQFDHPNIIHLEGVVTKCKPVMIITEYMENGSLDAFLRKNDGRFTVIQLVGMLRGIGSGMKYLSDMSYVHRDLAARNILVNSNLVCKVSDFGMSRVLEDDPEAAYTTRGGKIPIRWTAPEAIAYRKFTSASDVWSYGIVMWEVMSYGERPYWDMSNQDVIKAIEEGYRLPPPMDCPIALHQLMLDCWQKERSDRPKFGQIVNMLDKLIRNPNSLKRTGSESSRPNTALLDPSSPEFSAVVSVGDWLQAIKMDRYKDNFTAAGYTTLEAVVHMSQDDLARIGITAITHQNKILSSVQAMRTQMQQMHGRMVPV
# Experiment: Induction of EphA4 phosphorylation in C57BL/6 mouse Primary cortical neuron at 1 to 10 uM incubated for 30 mins by immunoprecipitation based Western blot analysis
# Assay type: cell-based
# Conditions: dose 1-10 µM
row,SMILES,Activity
1,CC(C)[C@H](NC(=O)[C@H](CS)NC(=O)[C@H](Cc1ccc(O)cc1)NC(=O)[C@@H]1CCCN1C(=O)CCN)C(=O)N[C@@H](Cc1ccc(O)cc1)C(=O)N[C@@H](CCCNC(=N)N)C(=O)NCCC(=O)N[C@@H](CO)C(=O)N[C@@H](Cc1cc2ccccc2[nH]1)C(=O)N[C@@H](CO)C(=O)N[C@@H](CS)C(N)=O,inactive
